Data reported in US5250673A, “2'-deoxy-5-substituted uridine derivatives” (priority 1983, dated 1993).
Read-outs that look alike come from different tables or passages of the source.

How the values were obtained:
Assay type in all cases: in vivo, mouse
[1] = toxicity value: 50% inhibition of weight increase of test animal (Sarcoma 180 tumor-transplanted mice); settings: mouse, sarcoma 180 bearing mice, oral, once a day, 7 days, male ICR/JCL mice, read-out: Toxicity value (B) Administration amount of test compound at which weight increase of test animal is inhibited by 50% compared with that of control group
Procedure: (b) Method for determining toxicity value
Hitherto, toxicity values of anti-malignant tumor agents have been calculated on the bases of LD50 of test animals, in most cases. […] Therefore, in the present test, accumulated toxicity, which well represents the toxicity of anti-malignant tumor agents, was focused on and, as an indication for sensitive detection of the accumulated toxicity, inhibition of weight increase of test animal was measured. That is, when antitumor activity value was determined in the above item (a), the weight of each mouse of each test groups for each test compounds was measured daily from the day of tumor transplanting, immediately before administration.
On the day of tumor weight measurement, the average net weight increase of each mouse of each test groups for each test compounds from the day of tumor transplanting was measured. These increases were compared with the average net weight increase of control group and the ratio of net weight increase of each test groups of each test compounds to that of control group was calculated. From these calculations, there was obtained an addition amount of each test compound at which weight increase is inhibited by 50% compared with that of control group, and that amount was taken as a toxicity value of each compound.

Sarcoma 180 [2] = experiment: calculation of therapeutic index (B)/(A), Sarcoma 180 mice; set-up: key: C = toxicity value (B) / antitumor activity value (A); settings: oral, once a day, 7 days
Procedure: (c) Calculation of therapeutic index
By the use of the antitumor activity value (hereinafter referred to as A) and the toxicity value (hereinafter referred to as B) of each compound, which were obtained in the above items (a) and (b), respectively, therapeutic index (hereinafter referred to as C) was calculated in accordance with the following equation.
Therapeutic index (C)=^(B)(A)

Sarcoma 180 [3] = experiment: antitumor activity: 50% inhibition of tumor enhancement, Sarcoma 180 transplanted in mice; settings: oral, once a day, 7 days, male ICR/JCL mice, tumor weight day 10
Procedure: (a) Method for determining of antitumor activity value
5×10^6 Cells of mouse-transplantable tumor Sarcoma 180 were transplanted to each male ICR/JCL-strain mouse (having a weight of 27 to 30 g) subcutaneously at the back. Each test compound dissolved or suspended in 0.1% Tween 80^(*) - 0.5% CMC solution was orally administered to various test groups each consisting of 7 mice once a day for 7 consecutive days from the next day of tumor transplanting, in an amount of 1.0 ml of solution or suspension per 100 g weight per day. As to a control group, the same Tween 80-CMC solution containing no test compound was orally administered once a day for 7 consecutive days in an amount of 1.0 ml per 100 g weight per day. (*) (A trademark for a series of surface which is a polyoxyethylene derivative of fatty acid partial ester of sorbitol anhydride, manufactured by I.C.I. U.S., Inc.)
On the tenth day from the tumor transplanting, an average tumor weight for each administration level of each test compound was determined. This weight was compared with an average tumor weight in control group, and the ratio of tumor enhancement inhibition at each administration level of each test compound compared with control group was calculated. From these calculations, the administration level of each test compound at which the ratio of tumor enhancement inhibition become 50% was obtained and the level (amount) was taken as the antitumor activity value of each compound.

Compound | TD50 at 240 h ([1]; Table 1-a) [mg/kg] | Therapeutic index (C) = (B)/(A) (Sarcoma 180 [2]; Table 1-a) | Antitumor activity value (A) Administration amount of test compound at which tumor enhancement is inhibited by 50% compared with that of control group (Sarcoma 180 [3]; Table 1-a) [mg/kg/day] | TD50 at 240 h ([1]; Table 1-b) [mg/kg] | Therapeutic index (C) = (B)/(A) (Sarcoma 180 [2]; Table 1-b) | Antitumor activity value (A) Administration amount of test compound at which tumor enhancement is inhibited by 50% compared with that of control group (Sarcoma 180 [3]; Table 1-b) [mg/kg/day] | TD50 at 240 h ([1]; Table 1-c) [mg/kg] | Antitumor activity value (A) Administration amount of test compound at which tumor enhancement is inhibited by 50% compared with that of control group (Sarcoma 180 [3]; Table 1-c) [mg/kg/day]
O=c1[nH]c(=O)n([C@H]2C[C@H](O)[C@@H](COCc3ccc(Cl)cc3)O2)cc1C(F)(F)F [Compound 11] | 22 | 1.22 | 18 |  |  |  |  | 
O=c1[nH]c(=O)n([C@H]2C[C@H](OCc3ccc(Cl)cc3)[C@@H](CO)O2)cc1C(F)(F)F [Compound 12] | 17 | 1.42 | 12 |  |  |  |  | 
Cc1ccccc1COC[C@H]1O[C@@H](n2cc(C(F)(F)F)c(=O)[nH]c2=O)C[C@@H]1O [Compound 13, 2'-deoxy-5'-O-(2-methylbenzyl)-5-trifluoromethyluridine] | 65 | 1.35 | 48 |  |  |  |  | 
Cc1ccccc1CO[C@H]1C[C@H](n2cc(C(F)(F)F)c(=O)[nH]c2=O)O[C@@H]1CO [Compound 14] | 57 | 1.43 | 40 |  |  |  |  | 
Cc1cccc(COC[C@H]2O[C@@H](n3cc(C(F)(F)F)c(=O)[nH]c3=O)C[C@@H]2O)c1 [Compound 15, 2'-deoxy-5'-O-(3-methylbenzyl)-5-trifluoromethyluridine] | 41 | 1.71 | 24 |  |  |  |  | 
Cc1cccc(CO[C@H]2C[C@H](n3cc(C(F)(F)F)c(=O)[nH]c3=O)O[C@@H]2CO)c1 [Compound 16, 2'-deoxy-3'-O-(3-methylbenzyl)-5trifluoromethyluridine] | 45 | 1.45 | 31 |  |  |  |  | 
COc1ccc(COC[C@H]2O[C@@H](n3cc(C(F)(F)F)c(=O)[nH]c3=O)C[C@@H]2O)cc1 [Compound 17] | 51 | 1.13 | 45 |  |  |  |  | 
COc1ccc(CO[C@H]2C[C@H](n3cc(C(F)(F)F)c(=O)[nH]c3=O)O[C@@H]2CO)cc1 [Compound 18, 2'-deoxy-3'-O-(4-methoxybenzyl)-5-trifluoromethyluridine] | 60 | 1.15 | 52 |  |  |  |  | 
O=c1c(C(F)(F)F)cn([C@H]2C[C@H](O)[C@@H](COCc3ccccc3)O2)c(=O)n1C1CCCO1 (stereo partly shown) [Compound 21, 3-(2-tetrahydrofuranyl)-2'-deoxy-5'-O-benzyl-5-trifluoromethyluridine] | 30 | 1.36 | 22 |  |  |  |  | 
CCOC[C@H]1O[C@@H](n2cc(C(F)(F)F)c(=O)n(C(=O)c3ccccc3)c2=O)C[C@@H]1O [Compound 24, 3-benzoyl-2'-deoxy-5'-O-ethyl-5-trifluoromethyluridine] |  |  |  | 36 | 1.38 | 26 |  | 
CCO[C@H]1C[C@H](n2cc(C(F)(F)F)c(=O)n(C(=O)c3ccccc3)c2=O)O[C@@H]1CO [Compound 25, 3-benzoyl-2'-deoxy-3'-O-ethyl-5-trifluoromethyluridine] |  |  |  | 31 | 0.82 | 38 |  | 
CCCCOC[C@H]1O[C@@H](n2cc(C(F)(F)F)c(=O)n(C(=O)c3ccccc3)c2=O)C[C@@H]1O [Compound 26] |  |  |  | 74 | 1.48 | 50 |  | 
O=C(c1ccccc1)n1c(=O)c(C(F)(F)F)cn([C@H]2C[C@H](O)[C@@H](COCc3ccccc3)O2)c1=O [Compound 27, 3-benzoyl-5'-O-benzyl-2'-deoxy-5-trifluoromethyluridine] |  |  |  | 35 | 1.40 | 25 |  | 
O=C(c1ccccc1)n1c(=O)c(C(F)(F)F)cn([C@H]2C[C@H](OCc3ccccc3)[C@@H](CO)O2)c1=O [Compound 28, 3-benzoyl-3'-O-benzyl-2'-deoxy-5-trifluoromethyluridine] |  |  |  | 35 | 1.40 | 25 |  | 
COC[C@H]1O[C@@H](n2cc(C(F)(F)F)c(=O)[nH]c2=O)C[C@@H]1O [Compound 29] |  |  |  | 72 | 1.50 | 48 |  | 
CCOC[C@H]1O[C@@H](n2cc(C(F)(F)F)c(=O)[nH]c2=O)C[C@@H]1O [Compound 30, 2'-deoxy-5'-O-ethyl-5-trifluoromethyluridine] |  |  |  | 32 | 1.68 | 19 |  | 
CCO[C@H]1C[C@H](n2cc(C(F)(F)F)c(=O)[nH]c2=O)O[C@@H]1CO [Compound 31, 2'-deoxy-3'-O-ethyl-5-trifluoromethyluridine] |  |  |  | 30 | 1.50 | 20 |  | 
O=c1[nH]c(=O)n([C@H]2C[C@H](O)[C@@H](COCc3ccccc3)O2)cc1C(F)(F)F [Compound 32, 2'-deoxy-5'-O-benzyl-5-trifluoromethyluridine] |  |  |  | 34 | 1.79 | 19 |  | 
O=c1[nH]c(=O)n([C@H]2C[C@H](OCc3ccccc3)[C@@H](CO)O2)cc1C(F)(F)F [Compound 33, 3'-O-benzyl-2'-deoxy-5-trifluoromethyluridine] |  |  |  | 32 |  | 17 |  | 
O=c1[nH]c(=O)n([C@H]2C[C@H](OCc3ccccc3)[C@@H](CO)O2)cc1F [Compound 40, 2'-deoxy-3'-O-benzyl-5-fluorouridine] |  |  |  |  |  |  | 35 | 17
